Measurements as given in US20220193060A1, “Inhibition of IL-1 Induced Inflammation” (THIOLAB, LLC., priority 2019, published 2022).
“Also recorded” adds a separate entry of the source.

Experiments:
IL-1RA = test: human IL-1RA (receptor antagonist) ELISA, THP-1 supernatant; assay type: cell-based
Experimental: (§1) Methodology: The study included replicated tests of IL-1β levels with and without CPDS, as well as reference testing of untreated cells and cells treated with lactoferrin and clobetasol. A third test was conducted of IL-1 receptor […] (IL-1RA) receptor, to assist in distinguishing whether reductions in IL-1β levels were associated with secretion or receptor blocking (via the receptor antagonist). Cell viability studies were conducted for both sets of tests. 1. THP-1 cells were grown in (RPMI+10% FBS, 10 mM HEPES, 1 mM Sodium Pyruvate, and 0.05 mM 2-Mecaptpethanol) to P8. 2. Cells were plated at 30,000 cells per well in 120 ul with Media+20 ng/ml PMA+2× Genta. 3. […] Cells were treated according to plan below. 5. Cells were incubated for three more days at 37° C. and 5% CO2. 6. Cell supernatant were collected and ELISA was measured for IL-1RA, IL-1α, and IL-1β. 7. Plate was read at 490 nm until O.D reached 1.5. In order to determine whether the reduction in IL-1β was from blocking of secretion or from blocking of the receptor, a human IL-1RA (receptor antagonist) ELISA test was performed.

poison oak = test: Case: topical CPDS for poison oak exposure; assay type: in vivo, human
Experimental: An individual was exposed to poison oak on their left arm through physical contact. They developed a rash and other symptoms of inflammation such as redness, itching, burning sensation, and swelling. The individual was treated using topical application a cream containing 1% CPDS by weight. The cream was applied every two hours on the first day, and thereafter two to three times a day. The cream contained water, mineral oil, stearic acid, triethanolamine, propylene glycol, glyceryl stearate, stearyl alcohol, dirnethicone, isopropyl palmitate, cetyl alcohol, lactic acid, retinyl acetate, tocopheryl acetate, hydrolyzed collagen, fragrance, methylparaben, and O&C red #33. The individual was treated alternatively with 1% CPDS by weight in an ointment containing white petroleum and mineral oil.

IL-6 = test: LPS-stimulated macrophages, IL-6 ELISA; assay type: cell-based, murine
Experimental: An in vitro model of inflammation mediated by macrophages is used. Primary macrophages isolated from humans or non-human species (e.g., mice or rats) were used. A murine macrophage cell line RAW264.7 (CCRL-2278) was also used. Macrophages are treated with CPDS. […] Then the effect of CPDS on inflammation is assessed by comparing the levels of […] mediators IL-6 and IL-10. IL-10 and IL-6 were determined by ELISA. The level of IL-6 and IL-10 were compared to the level prior to CPDS treatment.

IP-10 = test: LPS-stimulated RAW 264.7 cells, IP-10 secretion; assay type: cell-based; conditions: murine RAW 264.7 cells, pre-treatment prior to LPS
Experimental: An in vitro model of inflammation mediated by macrophages is used. […] A murine macrophage cell line RAW264.7 (CCRL-2278) was also used. Macrophages are treated with CPDS. […] Then the effect of CPDS on inflammation is assessed by comparing the levels of anti-inflammatory mediators IL-6 and IL-10. IL-10 and IL-6 were determined by ELISA. The level of IL-6 and IL-10 were compared to the level prior to CPDS treatment. […] In addition we measured decrease in the secretion of IP-10.

THP-1 cells = test: Cell viability of CPDS-treated THP-1 cells; assay type: cell-based, human
Experimental: as §1, with “1.5.” for “1.5. In order to determine whether the reduction in IL-1β was from blocking of secretion or from blocking of the receptor, a human IL-1RA (receptor antagonist) ELISA test was performed.”

[1] = tested on: non-malignant intraductal breast hyperplasia; test: Case: oral CPDS for breast hyperplasia; assay type: in vivo, human
Experimental: An individual, diagnosed with non-malignant intraductal breast hyperplasia on the upper left quadrant of the left breast was treated with CPDS. […] CPDS was administered in 99.7% pure form in capsules without excipients.

Q: How did the “reduction of IL-1RA” value (IL-1RA; 100 μM) turn out when O=C(O)c1ccc(SSc2ccc(C(=O)O)cn2)nc1 [CPDS, 6,6′-dithiodinicotinic acid] was run?
A: 60%

Q: And the “reduction of IL-1RA” value (IL-1RA; 200 μM)?
A: 76%

Q: What about the “effect on IL-1RA production” value (IL-1RA; all concentrations lower than 100 μM) of the same molecule?
A: did not affect; also recorded: no effect

Q: What about the itching and burning (poison oak; person, topical cream or ointment with 1% CPDS by weight) of the same molecule?
A: dissipated immediately

Q: What about the recurrence of symptoms (poison oak; topical 1% CPDS by weight) of the same molecule?
A: did not recur

Q: What about the redness and swelling (poison oak; topical 1% CPDS by weight) of the same molecule?
A: disappeared in about one week

Q: And the “spread of rash to other parts of the body” value (poison oak; topical 1% CPDS by weight)?
A: did not spread

Q: And the “IL-6 levels / expression” value (IL-6; FIG. 3, macrophages inflamed by LPS, dosage series of CPDS)?
A: dramatically reduced; also recorded: concentration dependent diminution

Q: What about the “expression level of IL-6” value (IL-6; macrophages, CPDS (e.g., 50 μM) 90 minutes before LPS (10 ug/ml), 24 to 48 hours) of the same molecule?
A: dramatically reduced

Q: And the “activity on IL-6 compared with DEX” value (IL-6; murine RAW 264.7 cells, LPS)?
A: more active

Q: And the “secretion of IL-6” value (IL-6; murine RAW 264.7 cells, pre-treatment prior to LPS)?
A: drastically reduced

Q: And the “secretion of IP-10” value (IP-10)?
A: decrease

Q: What about the cell viability (THP-1 cells; 200 μM) of the same molecule?
A: slight decline in viability

Q: And the cell viability (THP-1 cells; all CPDS concentrations except 200 μM, both tests)?
A: ≥ 100%

Q: What about the “pain in breast and axilla” value ([1]; after commencing oral 140 mg per day) of the same molecule?
A: subsided within two days

Q: What about the “pain following discontinuation of CPDS” value ([1]; after discontinuation) of the same molecule?
A: returned within two to three days

Q: And the side effect ([1]; oral 140 mg per day)?
A: No side effect

Q: What about the “growth of breast hyperplasia (mammograms)” value ([1]; person, oral 140 mg per day, forty-eight months) of the same molecule?
A: stopped growing
